Patent US20260297092A1, “PYRAZOLOPYRIMIDINE DERIVATIVES AS INHIBITORS OF NLRP3” (Takeda Pharmaceutical Company Limited, priority 2023, published 2026)

tested on: NLRP3 inflammasome (IL-1β production in THP-1 cells); experiment: IL-1β TR-FRET Assay (percentage of inhibition at 300 nM, 6 μM or 10 μM); type: cell-based, human; settings: Homo sapiens, THP-1, 300 nM, LPS priming, ATP activation, read-out: IL-1β inhibitory rate at 300 nM (%)
Experimental: The biological activity of the compound of Formula 1 with respect to NLRP3 was determined using the following in vitro method.
IL-1β TR-FRET Assay (reported as percentage of inhibition at 300 nM, 6 μM or 10 μM)
Monocytic THP-1 cells (ATCC: TIB-202) were maintained in accordance with the provider's instructions in RPMI media (Life Technologies, Cat #A10491-01); RPMI was supplemented with 10% heat inactivated fetal bovine serum (Corning, Cat #35-010-CV). The cells were differentiated into macrophages by the addition of 25 ng/mL IFN-γ (PeproTech, Cat #AF-300-02-100UG) for 24 hours at 37° C./5% CO2. Media was exchanged with fresh media with no FBS, and the cells were treated with 50 ng/mL LPS (priming step) (LPS-EK: Invivogen, Cat #tlrl-peklps). The cells were plated at 20,000 cells per well in 384-well flat-bottom cell culture plates (FALCON, Cat #353962) and were incubated for 24 hours at 37° C./5% CO2. Compounds were serially diluted (half log or 5-fold dilutions) with DMSO and were finally diluted with Media with no FBS. The compounds were added to the cells in 384-well plates (added in 1:3) and then the plates were incubated for 30 minutes at 37° C./5% CO2. The NLRP3 inflammasome was activated with the addition of 20 mM ATP (Sigma Cat #A3377-25G) and the cells were incubated for 2 hours at 37° C./5% CO2. At the end of the incubation period, 30 μL supernatant was transferred to another 384-well plate and mixed on a plate shaker for 1 minute. The supernatant was mixed with HTRF Antibody (Human IL1 beta kit, Cisbio, 62HIL1BPEH) in assay plates (Greiner Bio-One, Cat #784075) and the assay plates were incubated in shading box at room temperature for 16-24 hours. HTRF signal was measured by EnVision (Perkinelmer) in accordance with the manufacturer's instructions.
The percentage of inhibition at 300 nM, 6 μM or 10 μM in the IL-1βTR-FRET assay was calculated by the following formula: Percentage of inhibition=[1−(HTRF signaltest−HTRF signalLow)/(HTRF signalHigh−HTRF signalLow)]*100, where HTRF signaltest is the HTRF signal in the well to which test compound is added, HTRF signalLow is the HTRF signal in the well to which 3 μM MCC-950 is added, and the HTRF signalHigh is the HTRF signal in the well to which DMSO is added.

First: Cc1cc(C2CC2)cc(C)c1-n1cc2c(=O)[nH]c(-c3cnn(C)c3)nc2n1 [Example 217, 2-(4-cyclopropyl-2,6-dimethylphenyl)-6-(1-methyl-1H-pyrazol-4-yl)-2,5-dihydro-4H-pyrazolo[3,4-d]pyrimidin-4-one]
Second: Cc1cc(C2CC2)cc(C)c1-n1cc2c(=O)[nH]c(C(C)(C)O)nc2n1 [Example 172, 2-(4-cyclopropyl-2,6-dimethylphenyl)-6-(2-hydroxypropan-2-yl)-2,5-dihydro-4H-pyrazolo[3,4-d]pyrimidin-4-one]
The inhibition at 0.3 µM of the first is higher: 108% for the first, 61% for the second.

Going from `Cc1ccc(-n2cc3c(=O)[nH]c(OCC(F)F)nc3n2)c(C)c1` [Example 220, 6-(2,2-difluoroethoxy)-2-(2,4-dimethylphenyl)-2,5-dihydro-4H-pyrazolo [3,4-d]pyrimidin-4-one] to `Cc1ccc(-n2cc3c(=O)[nH]c(OCCC(F)(F)F)nc3n2)c(C)c1` [Example 197, 2-(2,4-dimethylphenyl)-6-(3,3,3-trifluoropropoxy)-2,5-dihydro-4H-pyrazolo [3,4-d]pyrimidin-4-one], the inhibition at 0.3 µM falls from 71% to 60%.

Going from `CCOc1nc2nn(-c3c(C)cc(C4CC4)nc3C)cc2c(=O)[nH]1` [Example 174, 2-(6-cyclopropyl-2,4-dimethylpyridin-3-yl)-6-ethoxy-2,5-dihydro-4H-pyrazolo[3,4-d]pyrimidin-4-one] to `COCCOc1nc2nn(-c3c(C)cc(C4CC4)cc3C(F)F)cc2c(=O)[nH]1` [Example 210, 2-[4-cyclopropyl-2-(difluoromethyl)-6-methylphenyl]-6-(2-methoxyethoxy)-2,5-dihydro-4H-pyrazolo[3,4-d]pyrimidin-4-one], the inhibition at 0.3 µM falls from 108% to 101%.

First: Cc1cc(Br)cc(C)c1-n1cc2c(=O)[nH]c(C3(F)CC3)nc2n1 [Example 188, 2-(4-bromo-2,6-dimethylphenyl)-6-(1-fluorocyclopropyl)-2,5-dihydro-4H-pyrazolo[3,4-d]pyrimidin-4-one]
Second: Cc1cc(C2CC2)cc(C)c1-n1cc2c(=O)[nH]c(C3CCCO3)nc2n1 (racemic) [Example 223, 2-(4-cyclopropyl-2,6-dimethylphenyl)-6-(oxolan-2-yl)-2,5-dihydro-4H-pyrazolo[3,4-d]pyrimidin-4-one]
The inhibition at 0.3 µM of the first is lower: 99% for the first, 100% for the second.

Going from `COc1nc2nn(-c3c(OC)cc(C4CC4)cc3C(F)F)cc2c(=O)[nH]1` [Example 169, 2-[4-cyclopropyl-2-(difluoromethyl)-6-methoxyphenyl]-6-methoxy-2,5-dihydro-4H-pyrazolo[3,4-d]pyrimidin-4-one] to `CCOc1nc2nn(-c3c(F)cc(OC)cc3C(F)F)cc2c(=O)[nH]1` [Example 149, 2-[2-(difluoromethyl)-6-fluoro-4-methoxyphenyl]-6-ethoxy-2,5-dihydro-4H-pyrazolo[3,4-d]pyrimidin-4-one], the inhibition at 0.3 µM falls from 103% to 99%.

For `CCCc1ccc(-n2nc3nc(OCC)[nH]c(=O)c3c2C)c(O)c1` [Example 80, 6-ethoxy-2-(2-hydroxy-4-propylphenyl)-3-methyl-2,5-dihydro-4H-pyrazolo[3,4-d]pyrimidin-4-one], the inhibition at 0.3 µM was 99%.

same assay, conditions: Homo sapiens, THP-1, 6 μM, LPS priming, ATP activation, read-out: IL-1β inhibitory rate at 6 μM (%)

First: Nc1ccc(-n2cc3c(=O)[nH]c(COC(F)F)nc3n2)c(C(F)F)c1 [Example 261, 2-[4-amino-2-(difluoromethyl)phenyl]-6-[(difluoromethoxy)methyl]-2,5-dihydro-4H-pyrazolo[3,4-d]pyrimidin-4-one]
Second: O=c1[nH]c(COC(F)F)nc2nn(-c3ccc([N+](=O)[O-])cc3C(F)F)cc12 [Example 256, 6-[(difluoromethoxy)methyl]-2-[2-(difluoromethyl)-4-nitrophenyl]-2,5-dihydro-4H-pyrazolo [3,4-d]pyrimidin-4-one]
The inhibition at 6 µM of the first is lower: 80% for the first, 89% for the second.

Compared with `CCc1nc2nn(-c3ccc(C4CC4)c(C(F)F)c3F)cc2c(=O)[nH]1` [Example 281, 2-[4-cyclopropyl-3-(difluoromethyl)-2-fluorophenyl]-6-ethyl-2,5-dihydro-4H-pyrazolo[3,4-d]pyrimidin-4-one], `CCOc1c(-n2cc3c(=O)[nH]c(CC)nc3n2)ccc(C2CC2)c1C(F)F` [Example 282, 2-[4-cyclopropyl-3-(difluoromethyl)-2-ethoxyphenyl]-6-ethyl-2,5-dihydro-4H-pyrazolo[3,4-d]pyrimidin-4-one] is lower in inhibition at 6 µM: 98% for the first, 55% for the second.

First: Cc1cc(C2CC2)cc(Cl)c1-n1cc2c(=O)[nH]c(COC(F)F)nc2n1 [Example 294, 2-(2-chloro-4-cyclopropyl-6-methylphenyl)-6-[(difluoromethoxy)methyl]-2,5-dihydro-4H-pyrazolo[3,4-d]pyrimidin-4-one]
Second: COCc1nc2nn(-c3c(C)cc(C4CC4)cc3CC(F)F)cc2c(=O)[nH]1 [Example 323, 2-[4-cyclopropyl-2-(2,2-difluoroethyl)-6-methylphenyl]-6-(methoxymethyl)-2,5-dihydro-4H-pyrazolo[3,4-d]pyrimidin-4-one]
The inhibition at 6 µM of the first is higher: 106% for the first, 103% for the second.

Compared with `Cc1cc(C2CC2)cc(C)c1-n1cc2c(=O)[nH]c([C@H]3CCCCO3)nc2n1` [Example 233, 2-(4-cyclopropyl-2,6-dimethylphenyl)-6-(oxan-2-yl)-2,5-dihydro-4H-pyrazolo[3,4-d]pyrimidin-4-one], `Cc1cc(C2CC2)cc(C)c1-n1cc2c(=O)[nH]c(C3C=COCC3)nc2n1` (stereo not shown) [Example 306, 2-(4-cyclopropyl-2,6-dimethylphenyl)-6-(3,4-dihydro-2H-pyran-4-yl)-2,5-dihydro-4H-pyrazolo[3,4-d]pyrimidin-4-one] is higher in inhibition at 6 µM: 93% for the first, 98% for the second.

Going from `CCOCc1nc2nn(-c3c(F)cc(C4CC4)cc3C(F)F)cc2c(=O)[nH]1` [Example 314, 2-[4-cyclopropyl-2-(difluoromethyl)-6-fluorophenyl]-6-(ethoxymethyl)-2,5-dihydro-4H-pyrazolo[3,4-d]pyrimidin-4-one] to `CCCc1nc2nn(-c3c(C)cc(C4CC4)cc3C)cc2c(=O)[nH]1` [Example 240, 2-(4-cyclopropyl-2,6-dimethylphenyl)-6-propyl-2,5-dihydro-4H-pyrazolo[3,4-d]pyrimidin-4-one], the inhibition at 6 µM falls from 105% to 101%.

First: Cc1cc(C2CC2)cc(C)c1-n1cc2c(=O)[nH]c([C@H]3C[C@H](F)C3)nc2n1 [Example 255, 2-(4-cyclopropyl-2,6-dimethylphenyl)-6-[(1r,3r)-3-fluorocyclobutyl]-2,5-dihydro-4H-pyrazolo [3,4-d]pyrimidin-4-one]
Second: Cc1cc(C2CC2)cc(C)c1-n1cc2c(=O)[nH]c(CCO)nc2n1 [Example 276, 2-(4-cyclopropyl-2,6-dimethylphenyl)-6-(2-hydroxyethyl)-2,5-dihydro-4H-pyrazolo[3,4-d]pyrimidin-4-one]
The inhibition at 6 µM of the first is lower: 98% for the first, 99% for the second.

Going from `Cc1cc(C2CC2)cc(C)c1-n1cc2c(=O)[nH]c(COC3COC3)nc2n1` [Example 236, 2-(4-cyclopropyl-2,6-dimethylphenyl)-6-{[(oxetan-3-yl)oxy]methyl}-2,5-dihydro-4H-pyrazolo[3,4-d]pyrimidin-4-one] to `CCOC(Cc1nc2nn(-c3c(C)cc(C4CC4)cc3C)cc2c(=O)[nH]1)OCC` [Example 234, 2-(4-cyclopropyl-2,6-dimethylphenyl)-6-(2,2-diethoxyethyl)-2,5-dihydro-4H-pyrazolo[3,4-d]pyrimidin-4-one], the inhibition at 6 µM falls from 93% to 90%.

First: Cc1cc(C2CC2)cc(C)c1-n1cc2c(=O)[nH]c(C3(F)CCOCC3)nc2n1 [Example 238, 2-(4-cyclopropyl-2,6-dimethylphenyl)-6-(4-fluorooxan-4-yl)-2,5-dihydro-4H-pyrazolo[3,4-d]pyrimidin-4-one]
Second: Cc1cc(C2CC2)cc(C)c1-n1cc2c(=O)[nH]c(-c3cc4n(n3)CCO4)nc2n1 [Example 270, 2-(4-cyclopropyl-2,6-dimethylphenyl)-6-(2,3-dihydropyrazolo[5,1-b][1,3]oxazol-6-yl)-2,5-dihydro-4H-pyrazolo[3,4-d]pyrimidin-4-one]
The inhibition at 6 µM of the first is lower: 97% for the first, 98% for the second.

In the case of `CO[C@H]1C[C@@H](Oc2nc3nn(-c4ccc(C)cc4C)cc3c(=O)[nH]2)C1` [Example 243, 2-(2,4-dimethylphenyl)-6-{[(1s,3s)-3-methoxycyclobutyl]oxy}-2,5-dihydro-4H-pyrazolo[3,4-d]pyrimidin-4-one], the inhibition at 6 µM is reported as 100%.
